Results as given in ChEMBL document CHEMBL1138057, “Synthesis and structure-activity relationships of N-{3-[2-(4-alkoxyphenoxy)thiazol-5-yl]-1- methylprop-2-ynyl}carboxy derivatives as selective acetyl-CoA carboxylase 2 inhibitors” (J Med Chem, 2006).
pIC50: −log10 of the molar value. The source made the active and inactive calls. No cut-off for these calls is given here.

Experiments:
Acetyl-CoA carboxylase 2 = Acetyl-CoA carboxylase 2 (Homo sapiens, UniProt O00763); assay: Inhibition of human recombinant ACC2 expressed in baculovirus/sf9 system
Chain of Acetyl-CoA carboxylase 2 (O00763 whole entry): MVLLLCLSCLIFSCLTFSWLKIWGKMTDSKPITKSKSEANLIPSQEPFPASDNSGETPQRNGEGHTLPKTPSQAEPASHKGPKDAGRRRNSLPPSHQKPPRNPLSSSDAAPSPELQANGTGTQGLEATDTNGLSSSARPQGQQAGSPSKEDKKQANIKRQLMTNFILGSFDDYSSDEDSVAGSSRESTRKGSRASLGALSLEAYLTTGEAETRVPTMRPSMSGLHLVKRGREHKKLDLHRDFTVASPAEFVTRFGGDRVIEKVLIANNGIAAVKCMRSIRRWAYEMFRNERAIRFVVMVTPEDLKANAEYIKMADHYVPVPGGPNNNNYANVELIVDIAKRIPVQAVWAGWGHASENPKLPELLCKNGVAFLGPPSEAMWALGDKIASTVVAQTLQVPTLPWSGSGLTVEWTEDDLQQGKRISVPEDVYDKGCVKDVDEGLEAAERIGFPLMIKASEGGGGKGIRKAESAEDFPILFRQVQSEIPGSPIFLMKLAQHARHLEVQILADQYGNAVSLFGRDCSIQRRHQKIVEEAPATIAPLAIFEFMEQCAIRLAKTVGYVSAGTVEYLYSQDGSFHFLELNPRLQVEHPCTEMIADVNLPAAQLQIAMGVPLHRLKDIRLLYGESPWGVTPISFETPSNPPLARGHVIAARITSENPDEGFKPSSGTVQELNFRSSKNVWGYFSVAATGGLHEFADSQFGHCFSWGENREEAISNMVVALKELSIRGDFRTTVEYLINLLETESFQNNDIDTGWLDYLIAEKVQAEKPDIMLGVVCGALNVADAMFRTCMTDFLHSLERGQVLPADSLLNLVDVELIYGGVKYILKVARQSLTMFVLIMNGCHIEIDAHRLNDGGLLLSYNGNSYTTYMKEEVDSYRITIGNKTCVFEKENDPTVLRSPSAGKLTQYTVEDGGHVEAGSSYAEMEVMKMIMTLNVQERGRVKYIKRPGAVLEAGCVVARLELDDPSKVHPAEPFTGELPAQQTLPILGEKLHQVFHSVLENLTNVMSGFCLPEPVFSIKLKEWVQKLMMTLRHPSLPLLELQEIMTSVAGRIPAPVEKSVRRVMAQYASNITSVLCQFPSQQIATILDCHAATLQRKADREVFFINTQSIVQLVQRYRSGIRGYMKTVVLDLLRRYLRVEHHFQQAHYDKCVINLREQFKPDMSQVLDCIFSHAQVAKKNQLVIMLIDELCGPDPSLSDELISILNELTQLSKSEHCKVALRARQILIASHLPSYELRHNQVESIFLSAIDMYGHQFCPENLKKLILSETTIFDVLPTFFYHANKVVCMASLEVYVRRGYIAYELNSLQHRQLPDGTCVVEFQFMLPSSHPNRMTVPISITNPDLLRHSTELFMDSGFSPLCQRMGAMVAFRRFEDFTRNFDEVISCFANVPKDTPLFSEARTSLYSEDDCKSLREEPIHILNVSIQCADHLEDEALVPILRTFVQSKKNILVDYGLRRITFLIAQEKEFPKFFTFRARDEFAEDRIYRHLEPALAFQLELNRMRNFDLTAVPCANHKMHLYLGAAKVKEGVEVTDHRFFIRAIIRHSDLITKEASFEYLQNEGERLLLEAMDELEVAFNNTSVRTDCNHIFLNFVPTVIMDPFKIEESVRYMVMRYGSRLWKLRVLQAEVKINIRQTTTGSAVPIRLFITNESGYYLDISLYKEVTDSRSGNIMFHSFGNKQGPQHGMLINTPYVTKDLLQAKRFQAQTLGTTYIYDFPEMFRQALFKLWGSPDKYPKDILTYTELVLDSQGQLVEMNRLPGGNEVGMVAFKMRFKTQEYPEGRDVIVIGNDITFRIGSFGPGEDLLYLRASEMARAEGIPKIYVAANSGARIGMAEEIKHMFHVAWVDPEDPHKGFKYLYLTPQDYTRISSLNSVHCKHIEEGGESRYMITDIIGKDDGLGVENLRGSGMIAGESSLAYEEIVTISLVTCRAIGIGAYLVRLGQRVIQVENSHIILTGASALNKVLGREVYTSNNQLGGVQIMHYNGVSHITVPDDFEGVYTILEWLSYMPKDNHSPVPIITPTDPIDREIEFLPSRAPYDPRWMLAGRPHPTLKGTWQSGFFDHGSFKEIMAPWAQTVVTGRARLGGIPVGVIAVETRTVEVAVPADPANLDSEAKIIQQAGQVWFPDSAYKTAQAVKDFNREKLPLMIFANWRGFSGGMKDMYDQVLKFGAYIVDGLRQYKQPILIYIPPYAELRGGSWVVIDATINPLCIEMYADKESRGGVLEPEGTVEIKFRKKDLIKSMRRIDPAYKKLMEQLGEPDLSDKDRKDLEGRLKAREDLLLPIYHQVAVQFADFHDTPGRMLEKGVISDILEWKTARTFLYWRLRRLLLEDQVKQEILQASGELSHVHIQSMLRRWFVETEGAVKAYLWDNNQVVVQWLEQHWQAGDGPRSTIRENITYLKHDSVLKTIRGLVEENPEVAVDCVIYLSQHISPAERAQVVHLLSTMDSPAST

Acetyl-CoA carboxylase 1 = Acetyl-CoA carboxylase 1 (Homo sapiens, UniProt Q13085); assay: Inhibition of human recombinant ACC1 expressed in HEK293 cells; type: cell-based
Rattus norvegicus [1] = assay: Drug concentration in Sprague-Dawley rat plasma at 10 mg/kg; type: ADME, organism-based; design: dose 10 mg/kg; conditions: in vivo
Rattus norvegicus [2] = assay: Reduction of mCoA level in Sprague-Dawley rat muscle at 10 mg/kg, po; type: functional, Muscle tissue; design: scale not given: the % may be the effect or the level left
Rattus norvegicus [3] = assay: Drug concentration in Sprague-Dawley rat plasma at 50 mg/kg; type: ADME, organism-based; design: dose 50 mg/kg; conditions: in vivo
Rattus norvegicus [4] = assay: Reduction of mCoA level in Sprague-Dawley rat muscle at 50 mg/kg, po; type: functional, Muscle tissue; design: scale not given: the % may be the effect or the level left
Rattus norvegicus [5] = assay: Reduction of mCoA level in Sprague-Dawley rat liver at 50 mg/kg, po; type: functional; design: scale not given: the % may be the effect or the level left
[6] = Plasma clearance in rat at 5 mg/kg; type: ADME, organism-based; design: dose 5 mg/kg
[7] = Bioavailability in rat at 5 mg/kg; type: ADME, organism-based; conditions: in vivo
[8] = AUC in rat at 5 mg/kg, po; type: ADME, organism-based; design: dose 5 mg/kg, route oral; conditions: plasma
[9] = Tmax in rat at 5 mg/kg; type: ADME, organism-based; design: dose 5 mg/kg; conditions: in vivo
[10] = Volume of distribution in rat at 5 mg/kg; type: ADME, organism-based; design: dose 5 mg/kg; conditions: in vivo, read-out: Vss
[11] = Cmax in rat at 5 mg/kg; type: ADME, organism-based; design: dose 5 mg/kg; conditions: in vivo
[12] = Half life in rat at 5 mg/kg, po; type: ADME, organism-based; design: dose 5 mg/kg, route oral; conditions: in vivo
Rattus norvegicus [13] = assay: Reduction of mCoA level in Sprague-Dawley rat liver at 10 mg/kg, po; type: functional, organism-based; design: dose 10 mg/kg

| pIC50 (Acetyl-CoA carboxylase 2) | pIC50 (Acetyl-CoA carboxylase 1) | Structure (SMILES) | also measured |
| --- | --- | --- | --- |
| 7.72 | < 4.52 | CC(=O)NC(C)C#Cc1cnc(Oc2ccc(OC(C)C)cc2)s1 (stereo not drawn) | – |
| < 4.52 | < 4.52 | CC(=O)NC(C)C#Cc1csc(Oc2ccc(OC(C)C)cc2)n1 (stereo not drawn) | – |
| 6.22 | < 4.52 | CC(O)C#Cc1cnc(Oc2ccc(Oc3ccccc3)cc2)s1 (stereo not drawn) | – |
| 8.22 | 7.54 | CC(=O)NC(C)C#Cc1ccc(Oc2ccc(OC(C)C)cc2)cc1 (stereo not drawn) | – |
| 7.42 | < 4.52 | COC(=O)N[C@@H](C)C#Cc1cnc(Oc2ccc(OC(C)C)cc2)s1 | Cp (Rattus norvegicus [1]): 1540 ng/mL; Activity (Rattus norvegicus [2]): 36%; Cp (Rattus norvegicus [3]): 4900 ng/mL; Activity (Rattus norvegicus [4]): 54%; Activity (Rattus norvegicus [5]): 26% |
| 7.02 | < 4.52 | COC(=O)NC(C)C#Cc1cnc(Oc2ccc(OC(C)C)cc2)s1 (stereo not drawn) | clearance [6]: 3.33 mL/min/kg; bioavailability [7]: 80.4%; AUC [8]: 18900 ng·h/mL; Tmax [9]: 2 h; Vd [10]: 5 L/kg; Cmax [11]: 900 ng/mL; half-life [12]: > 12 h |
| 5.62 | < 4.52 | CC(N)C#Cc1cnc(Oc2ccc(Oc3ccccc3)cc2)s1 (stereo not drawn) | – |
| 7.52 | < 4.52 | CNC(=O)NC(C)C#Cc1cnc(Oc2ccc(OC(C)C)cc2)s1 (stereo not drawn) | – |
| 7.96 | 6.59 | CC(=O)NC(C)C#Cc1cnc(Oc2ccc(Oc3ccccc3)cc2)s1 (stereo not drawn) | – |
| 6.08 | < 4.52 | CC(=O)NC(C#Cc1cnc(Oc2ccc(OC(C)C)cc2)s1)C1CC1 (stereo not drawn) | – |
| 6.82 | < 4.52 | CC(=O)NC(C)C#Cc1cnc(Oc2ccc(NC(C)C)cc2)s1 (stereo not drawn) | – |
| 7.82 | 6.41 | CC(=O)NC(C)C#Cc1cnc(Oc2ccc(OC(C)C)nc2)s1 (stereo not drawn) | – |
| 5.76 | < 4.52 | CC(=O)NCC#Cc1cnc(Oc2ccc(OC(C)C)cc2)s1 | – |
| 7.10 | 6.00 | CC(C#Cc1cnc(Oc2ccc(Oc3ccccc3)cc2)s1)N(O)C(N)=O (stereo not drawn) | – |
| 5.82 | < 4.52 | COC(=O)N[C@H](C)C#Cc1cnc(Oc2ccc(OC(C)C)cc2)s1 | Cp (Rattus norvegicus [1]): 1330 ng/mL; Activity (Rattus norvegicus [13]): inactive; Activity (Rattus norvegicus [2]; Muscle tissue): inactive; Cp (Rattus norvegicus [3]): 5330 ng/mL; Activity (Rattus norvegicus [4]; Muscle tissue): inactive; Activity (Rattus norvegicus [5]): inactive |
| 7.42 | 6.39 | O=C(c1c2ccccc2cc2ccccc12)N1CCC(N2CCC[C@@H](C(=O)N3CCOCC3)C2)CC1 | – |
| < 4.52 | 5.90 | CC(=O)NC(C)C#Cc1cnc(Oc2ccc(C(C)C)cc2)s1 (stereo not drawn) | – |
| 7.26 | 6.43 | CC(=O)NC(C)C#Cc1cnc(Oc2ccc(SC(C)C)cc2)s1 (stereo not drawn) | – |
| 7.16 | < 4.52 | CC(=O)NC(C)C#Cc1cnc(Sc2ccc(OC(C)C)cc2)s1 (stereo not drawn) | – |
| 7.59 | < 4.52 | CC(C#Cc1cnc(Oc2ccc(Oc3ccccc3)cc2)s1)NC(N)=O (stereo not drawn) | – |
